Patent US12528803B2, “Inhibitors of αvβ6 integrin” (Morphic Therapeutic, Inc., priority 2018, dated 2026)

Key:
[1] = tested on: Madin-Darby Canine Kidney (MDCK) cells; assay: MDCK in vitro permeability assay (wild type MDCK cells, no inhibitor); format: in vitro ADME; details: no Pgp inhibitor, apical to basolateral (A→B)
Procedure: (§1) Compounds were tested for permeability in an MDCK permeability assay. This assay measures the ability of compounds to cross a layer of Madin-Darby Canine Kidney (MDCK) cells from the apical to basolateral side (A→B). This measurement is predictive of the ability of compounds to be absorbed in the gut following oral dosing, an essential characteristic of an orally administered small molecule integrin inhibitor drug.
(§2) The assay is run in two formats. One uses wild type MDCK cells with no inhibitor. This method works well in determining the passive permeability of compounds with low efflux by P-glyocprotein (Pgp), and was used to assess permeability of a Reference Compound having the chemical formula shown below.
(§3) Cell Culture and Maintenance: • Cell stock cultures (MDCK or MDCK MDR1) are maintained in MEM+10% FBS+1% NEAA, grown in 75 cm^2 tissue culture treated flasks and split (passed) 2 times weekly to maintain desired confluence. • For maintenance passage: trypsinized cells are routinely distributed into new flasks at a standard passage ratio of 1:20.
(§4) Seeding assay plates: MDCK assay plates are seeded with MDCK or MDCK MCR1 cells 3-4 days prior to running the assay. 24-well plates are seeded at a cell density of 0.88×10^5/well in a 400 μL apical chamber volume (2.2×10^5/mL) with a […] volume of growth medium to the 24-well basal chamber. […]

[2] = as above; format: in vitro ADME, Canine; details: dog, no Pgp inhibitor, apical to basolateral (A→B)
Procedure: as §1, §2, §3, §4

MDCK (A->B) [1]: less than 0.23
Papp A→B at 90 min, 5 μM [2]: < 0.23 ×10⁻⁶ cm/s
SMILES: O=C(O)CN1CCC(C(=O)N2CCC(c3ccc4c(n3)NCCC4)CC2)CC1 [Reference Compound]
